Assay results published in PubChem BioAssay (NCI).
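These data come from cells grown in 96-well plates and exposed to compound for 48 hours at five concentrations. Definition used: TGI = concentration required for complete inhibition of growth.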

Experiments:
Assay in all cases: inhibition of tumour cell growth, NCI panel, 48 h
786-0 renal = test system: 786-0 renal
A549 NSCLC = test system: A549 NSCLC
ACHN renal = test system: ACHN renal
CAKI-1 renal = test system: CAKI-1 renal
CCRF-CEM leukemia = test system: CCRF-CEM leukemia
COLO 205 colon = test system: COLO 205 colon
DU-145 prostate = test system: DU-145 prostate
EKVX NSCLC = test system: EKVX NSCLC
HCC-2998 colon = test system: HCC-2998 colon
HCT-116 colon = test system: HCT-116 colon
HCT-15 colon = test system: HCT-15 colon
HL-60(TB) leukemia = test system: HL-60(TB) leukemia
HOP-62 NSCLC = test system: HOP-62 NSCLC
HOP-92 NSCLC = test system: HOP-92 NSCLC
HS 578T breast = test system: HS 578T breast
HT29 colon = test system: HT29 colon
IGROV1 ovarian = test system: IGROV1 ovarian
K-562 leukemia = test system: K-562 leukemia
KM12 colon = test system: KM12 colon
LOX IMVI melanoma = test system: LOX IMVI melanoma
M14 melanoma = test system: M14 melanoma
MALME-3M melanoma = test system: MALME-3M melanoma
MCF7 breast = test system: MCF7 breast
MDA-MB-231 breast = test system: MDA-MB-231 breast
MDA-MB-435 = test system: MDA-MB-435
MDA-N = test system: MDA-N
MOLT-4 leukemia = test system: MOLT-4 leukemia
NCI-H226 lung = test system: NCI-H226 lung
NCI-H23 lung = test system: NCI-H23 lung
NCI-H522 lung = test system: NCI-H522 lung
NCI/ADR-RES ovarian = test system: NCI/ADR-RES ovarian
OVCAR-3 ovarian = test system: OVCAR-3 ovarian
OVCAR-4 ovarian = test system: OVCAR-4 ovarian
OVCAR-5 ovarian = test system: OVCAR-5 ovarian
OVCAR-8 ovarian = test system: OVCAR-8 ovarian
PC-3 prostate = test system: PC-3 prostate
RPMI-8226 leukemia = test system: RPMI-8226 leukemia
SF-268 CNS = test system: SF-268 CNS
SF-295 CNS = test system: SF-295 CNS
SF-539 CNS = test system: SF-539 CNS
SK-MEL-2 melanoma = test system: SK-MEL-2 melanoma
SK-MEL-28 melanoma = test system: SK-MEL-28 melanoma
SK-MEL-5 melanoma = test system: SK-MEL-5 melanoma
SK-OV-3 ovarian = test system: SK-OV-3 ovarian
SN12C renal = test system: SN12C renal
SNB-19 CNS = test system: SNB-19 CNS
SNB-75 CNS = test system: SNB-75 CNS
SR leukemia = test system: SR leukemia
SW-620 colon = test system: SW-620 colon
T-47D breast = test system: T-47D breast
TK-10 renal = test system: TK-10 renal
U251 CNS = test system: U251 CNS
UACC-257 melanoma = test system: UACC-257 melanoma
UACC-62 melanoma = test system: UACC-62 melanoma
UO-31 renal = test system: UO-31 renal
NCI-H460 lung = test system: NCI-H460 lung
A498 renal = test system: A498 renal
RXF 393 renal = test system: RXF 393 renal

Work on `Cc1cc2c3ccccc3nc2c2cc[nH]c(C)c12` yielded a TGI (786-0 renal) of 3.06 µM, a TGI (A549 NSCLC) of 50.8 µM and a TGI (ACHN renal) of 52.4 µM. It also gave a TGI (CAKI-1 renal) of 51 µM, a TGI (CCRF-CEM leukemia) of 4.77 µM and a TGI (COLO 205 colon) of 4.31 µM. The TGI (DU-145 prostate) was 29.8 µM, the TGI (EKVX NSCLC) was over 70.7 µM and the TGI (HCC-2998 colon) was 6.67 µM. For the same compound, the TGI (HCT-116 colon) was 3.57 µM, the TGI (HCT-15 colon) was 7.59 µM and the TGI (HL-60(TB) leukemia) was 4.23 µM. It also gave a TGI (HOP-62 NSCLC) of over 64.7 µM, a TGI (HOP-92 NSCLC) of 49.9 µM and a TGI (HS 578T breast) of over 65.5 µM. For the same compound, the TGI (HT29 colon) was over 80.6 µM, the TGI (IGROV1 ovarian) was over 55.9 µM and the TGI (K-562 leukemia) was 3.59 µM. It also gave a TGI (KM12 colon) of over 31.6 µM, a TGI (LOX IMVI melanoma) of 4.89 µM and a TGI (M14 melanoma) of 3.42 µM. The TGI (MALME-3M melanoma) was 28.8 µM, the TGI (MCF7 breast) was over 100 µM and the TGI (MDA-MB-231 breast) was 17.1 µM. The TGI (MDA-MB-435) was 3.45 µM, the TGI (MDA-N) was 3.3 µM and the TGI (MOLT-4 leukemia) was 22.1 µM. For the same compound, the TGI (NCI-H226 lung) was 28.2 µM, the TGI (NCI-H23 lung) was over 31.6 µM and the TGI (NCI-H522 lung) was 4.49 µM. For the same compound, the TGI (NCI/ADR-RES ovarian) was over 100 µM, the TGI (OVCAR-3 ovarian) was over 35.4 µM and the TGI (OVCAR-4 ovarian) was over 100 µM. The TGI (OVCAR-5 ovarian) was 36.5 µM, the TGI (OVCAR-8 ovarian) was 31.6 µM and the TGI (PC-3 prostate) was over 85.5 µM. The TGI (RPMI-8226 leukemia) was 20 µM, the TGI (SF-268 CNS) was 31.2 µM and the TGI (SF-295 CNS) was over 88.5 µM. The TGI (SF-539 CNS) was 11.4 µM, the TGI (SK-MEL-2 melanoma) was 23.3 µM and the TGI (SK-MEL-28 melanoma) was 3.3 µM. It also gave a TGI (SK-MEL-5 melanoma) of 20.2 µM, a TGI (SK-OV-3 ovarian) of 49.6 µM and a TGI (SN12C renal) of 18.5 µM. For the same compound, the TGI (SNB-19 CNS) was 48.9 µM, the TGI (SNB-75 CNS) was 36.5 µM and the TGI (SR leukemia) was over 74.8 µM. It also gave a TGI (SW-620 colon) of 6.87 µM, a TGI (T-47D breast) of 38.9 µM and a TGI (TK-10 renal) of 37.6 µM. For the same compound, the TGI (U251 CNS) was 5.62 µM, the TGI (UACC-257 melanoma) was 46.9 µM and the TGI (UACC-62 melanoma) was 27.9 µM. The TGI (UO-31 renal) was 45.1 µM.

`CC(=O)c1c2c(cc3c1CC1(C3)Cc3cc4c(c(C(=O)O)c3C1)CCCC4)CCCC2` (stereo not given) (tested in a mixture with another compound) showed a TGI (786-0 renal) of over 100 µM, a TGI (A549 NSCLC) of over 100 µM and a TGI (ACHN renal) of over 100 µM. For the same compound, the TGI (CAKI-1 renal) was over 100 µM, the TGI (CCRF-CEM leukemia) was 94.6 µM and the TGI (COLO 205 colon) was 68.4 µM. For the same compound, the TGI (DU-145 prostate) was over 100 µM, the TGI (EKVX NSCLC) was over 100 µM and the TGI (HCC-2998 colon) was 93.6 µM. The TGI (HCT-116 colon) was 72.4 µM, the TGI (HCT-15 colon) was over 100 µM and the TGI (HL-60(TB) leukemia) was 54.9 µM. It also gave a TGI (HOP-62 NSCLC) of 44.6 µM, a TGI (HOP-92 NSCLC) of 39.7 µM and a TGI (HS 578T breast) of over 100 µM. For the same compound, the TGI (HT29 colon) was over 100 µM, the TGI (IGROV1 ovarian) was over 100 µM and the TGI (K-562 leukemia) was over 100 µM. It also gave a TGI (KM12 colon) of 59.7 µM, a TGI (LOX IMVI melanoma) of over 100 µM and a TGI (M14 melanoma) of 96.2 µM. It also gave a TGI (MALME-3M melanoma) of over 100 µM, a TGI (MCF7 breast) of over 100 µM and a TGI (MDA-MB-435) of over 100 µM. For the same compound, the TGI (MDA-N) was over 100 µM, the TGI (MOLT-4 leukemia) was 43.9 µM and the TGI (NCI-H23 lung) was over 100 µM. The TGI (NCI-H460 lung) was 53.6 µM, the TGI (NCI-H522 lung) was over 100 µM and the TGI (NCI/ADR-RES ovarian) was over 100 µM. It also gave a TGI (OVCAR-3 ovarian) of 48.7 µM, a TGI (OVCAR-4 ovarian) of over 100 µM and a TGI (OVCAR-5 ovarian) of over 100 µM. For the same compound, the TGI (OVCAR-8 ovarian) was over 100 µM, the TGI (PC-3 prostate) was over 100 µM and the TGI (RPMI-8226 leukemia) was 89.3 µM. For the same compound, the TGI (SF-268 CNS) was over 100 µM, the TGI (SF-295 CNS) was over 100 µM and the TGI (SK-MEL-2 melanoma) was 60.5 µM. For the same compound, the TGI (SK-MEL-28 melanoma) was over 100 µM, the TGI (SK-MEL-5 melanoma) was 63.7 µM and the TGI (SK-OV-3 ovarian) was over 100 µM. It also gave a TGI (SN12C renal) of over 100 µM, a TGI (SNB-19 CNS) of over 100 µM and a TGI (SNB-75 CNS) of over 100 µM. It also gave a TGI (SR leukemia) of 53.8 µM, a TGI (SW-620 colon) of over 100 µM and a TGI (T-47D breast) of over 100 µM. For the same compound, the TGI (TK-10 renal) was over 100 µM, the TGI (U251 CNS) was 72.6 µM and the TGI (UACC-257 melanoma) was 74.3 µM. It also gave a TGI (UACC-62 melanoma) of over 100 µM and a TGI (UO-31 renal) of 40.6 µM.

`N#Cc1nc(C(O)c2ccccc2)oc1N` (stereo not given) showed a TGI (786-0 renal) of over 100 µM, a TGI (A498 renal) of over 100 µM and a TGI (A549 NSCLC) of over 100 µM. It also gave a TGI (ACHN renal) of over 100 µM, a TGI (CAKI-1 renal) of over 100 µM and a TGI (CCRF-CEM leukemia) of over 100 µM. For the same compound, the TGI (COLO 205 colon) was over 100 µM, the TGI (DU-145 prostate) was over 100 µM and the TGI (EKVX NSCLC) was over 100 µM. The TGI (HCT-116 colon) was over 100 µM, the TGI (HL-60(TB) leukemia) was over 100 µM and the TGI (HOP-62 NSCLC) was over 100 µM. It also gave a TGI (HOP-92 NSCLC) of over 100 µM, a TGI (HS 578T breast) of over 100 µM and a TGI (HT29 colon) of over 100 µM. It also gave a TGI (IGROV1 ovarian) of over 100 µM, a TGI (K-562 leukemia) of over 100 µM and a TGI (KM12 colon) of over 100 µM. For the same compound, the TGI (LOX IMVI melanoma) was over 100 µM, the TGI (M14 melanoma) was over 100 µM and the TGI (MALME-3M melanoma) was over 100 µM. The TGI (MCF7 breast) was over 100 µM, the TGI (MDA-MB-231 breast) was over 100 µM and the TGI (MDA-N) was over 100 µM. The TGI (MOLT-4 leukemia) was over 100 µM, the TGI (NCI-H226 lung) was over 100 µM and the TGI (NCI-H23 lung) was over 100 µM. For the same compound, the TGI (NCI-H522 lung) was over 100 µM, the TGI (NCI/ADR-RES ovarian) was over 100 µM and the TGI (OVCAR-3 ovarian) was over 100 µM. For the same compound, the TGI (OVCAR-5 ovarian) was over 100 µM, the TGI (OVCAR-8 ovarian) was over 100 µM and the TGI (PC-3 prostate) was over 100 µM. For the same compound, the TGI (RPMI-8226 leukemia) was over 100 µM, the TGI (RXF 393 renal) was over 100 µM and the TGI (SF-268 CNS) was over 100 µM. It also gave a TGI (SF-295 CNS) of over 100 µM, a TGI (SF-539 CNS) of over 100 µM and a TGI (SK-MEL-2 melanoma) of over 100 µM. The TGI (SK-MEL-28 melanoma) was over 100 µM, the TGI (SK-MEL-5 melanoma) was over 100 µM and the TGI (SK-OV-3 ovarian) was over 100 µM. For the same compound, the TGI (SN12C renal) was over 100 µM, the TGI (SNB-19 CNS) was over 100 µM and the TGI (SNB-75 CNS) was over 100 µM. It also gave a TGI (SW-620 colon) of over 100 µM, a TGI (T-47D breast) of over 100 µM and a TGI (TK-10 renal) of over 100 µM. It also gave a TGI (U251 CNS) of over 100 µM, a TGI (UACC-257 melanoma) of over 100 µM and a TGI (UACC-62 melanoma) of over 100 µM. It also gave a TGI (UO-31 renal) of over 100 µM.
